# Where a name gives a salt, the structure may show the parent alone.
# Target: SHP2 (Homo sapiens (Human), UniProt Q06124)
# Assay: SHP2 Biochemical Assay (DiFMUP conversion, pIRS1 activating peptide)
# Conditions: not given
# Experimental: SHP2 activity was monitored by measuring the conversion of the surrogate substrate 6,8-difluoromethylumbelliferyl phosphate (DiFMUP) to the fluorescent product, 6,8-difluoromethylumbelliferone (DiFMU).
# SHP2 was pre-incubated with test compounds and the activating peptide pIRS1 (H2N-LN(pY)IDLDLV-(PEG)8-LST(pY)ASINFQK-amide) for 30 min, prior to addition of the […] (DiFMUP), (Thermo Fisher D6567). […] Rates of reaction were then measured over 30 min by monitoring fluorescence on a BMG Pherastar reader at excitation 360 nm/emission 450 nm. IC50 values were calculated from the normalized dose-response plots using four parameter logistic curve fit.
# Chain of SHP2 (Q06124 whole entry): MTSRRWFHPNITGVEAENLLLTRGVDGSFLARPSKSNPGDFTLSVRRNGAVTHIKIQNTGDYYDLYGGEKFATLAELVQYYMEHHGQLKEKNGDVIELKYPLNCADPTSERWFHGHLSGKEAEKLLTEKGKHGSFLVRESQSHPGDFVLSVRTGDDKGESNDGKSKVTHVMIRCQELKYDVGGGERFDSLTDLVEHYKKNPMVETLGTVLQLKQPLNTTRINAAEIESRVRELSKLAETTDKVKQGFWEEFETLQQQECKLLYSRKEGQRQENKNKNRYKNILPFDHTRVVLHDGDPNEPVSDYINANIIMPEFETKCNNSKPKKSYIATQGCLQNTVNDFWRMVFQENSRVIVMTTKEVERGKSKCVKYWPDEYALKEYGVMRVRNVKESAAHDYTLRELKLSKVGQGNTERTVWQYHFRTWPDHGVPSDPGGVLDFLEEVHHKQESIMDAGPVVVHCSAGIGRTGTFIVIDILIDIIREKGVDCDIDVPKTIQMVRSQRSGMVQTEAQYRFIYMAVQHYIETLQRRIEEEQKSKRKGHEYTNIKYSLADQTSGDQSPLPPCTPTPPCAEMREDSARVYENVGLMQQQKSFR
Structure (SMILES),IC50 [µM],SHP2 (percent at stated concentration) [%@0.30 uM]
"Cc1noc(Cn2cc3c(Cl)c(-c4c[nH]c5nc(N6[C@@H]7CC[C@H]6C[C@@H](N)C7)cnc45)ccc3n2)n1 [Example 69, endo-8-(7-{4-chloro-2-[(3-methyl-1,2,4-oxadiazol-5-yl)methyl]-2H-indazol-5-yl}-5H-pyrrolo[2,3-b]pyrazin-3-yl)-8-azabicyclo[3.2.1]octan-3-amine, hydrochloride salt]",0.0068,–
"Cn1cc2c(Cl)c(-c3c[nH]c4nc(N5[C@@H]6CC[C@H]5[C@H](F)[C@H](N)C6)cnc34)ccc2n1 (racemic) [Example 12, rac-(1S,2R,3R,5R)-8-[7-(4-chloro-2-methyl-2H-indazol-5-yl)-5H-pyrrolo[2,3-b]pyrazin-3-yl]-2-fluoro-8-azabicyclo[3.2.1]octan-3-amine]",0.015,–
"N[C@H]1C[C@H]2CC[C@@H](C1)N2c1cnc2c(-c3ccc4nc(C5CCOC5)sc4c3Cl)c[nH]c2n1 (stereo partly drawn) [Example 39, endo-8-{7-[7-chloro-2-(oxolan-3-yl)-1,3-benzothiazol-6-yl]-5H-pyrrolo[2,3-b]pyrazin-3-yl}-8-azabicyclo[3.2.1]octan-3-amine, dihydrochloride salt]",0.0069,–
"Cn1nc2ccc(-c3c[nH]c4nc(N5[C@H]6CC[C@@H]5[C@@H](F)[C@@H](N)C6)cnc34)c(Cl)c2c1Cl [Example 104, (1R,2S,3S,5S)-8-[7-(3,4-dichloro-2-methyl-2H-indazol-5-yl)-5H-pyrrolo[2,3-b]pyrazin-3-yl]-2-fluoro-8-azabicyclo[3.2.1]octan-3-amine, hydrochloride]",0.0095,–
"CN1Cc2c(ccc(-c3c[nH]c4nc(N5CC[C@H](N)[C@H](F)C5)cnc34)c2Cl)C1=O [Example 72, 5-{3-[(3R,4S)-4-amino-3-fluoropiperidin-1-yl]-5H-pyrrolo[2,3-b]pyrazin-7-yl}-4-chloro-2-methyl-2,3-dihydro-1H-isoindol-1-one, hydrochloride salt]",–,50

# Same assay, conditions: DiFMUP substrate, 0.25 μM pIRS1 peptide, 30 min pre-incubation; average where more than one data point; read-out: SHP2 (IC50)
row,Structure (SMILES),IC50 [µM]
1,"Cc1nc2c(-c3ccc4nn(C)cc4c3Cl)n[nH]c2nc1N1C2CCCC1CNC2 [Example 91, 4-Chloro-5-(6-{3,9-diazabicyclo[3.3.1]nonan-9-yl}-5-methyl-1H-pyrazolo[3,4-b]pyrazin-3-yl)-2-methyl-2H-indazole, hydrochloride salt]",0.022
2,"Cn1cc2c(Cl)c(-c3c[nH]c4nc(N5[C@@H]6CC[C@H]5C[C@@H](N)C6)cnc34)cc(F)c2n1 [Example 50, endo-8-[7-(4-chloro-7-fluoro-2-methyl-2H-indazol-5-yl)-5H-pyrrolo[2,3-b]pyrazin-3-yl]-8-azabicyclo[3.2.1]octan-3-amine]",0.031
3,"Cn1cc2c(Cl)c(-c3c[nH]c4nc(N5CCC(N)CC5)cnc34)ccc2n1 [Example 4, 1-[7-(4-chloro-2-methyl-2H-indazol-5-yl)-5H-pyrrolo[2,3-b]pyrazin-3-yl]piperidin-4-amine]",0.016
4,"CCn1cc2c(Cl)c(-c3n[nH]c4nc(N5[C@H]6CC[C@@H]5[C@@H](F)[C@@H](N)C6)c(CO)nc34)ccc2n1 [Example 82, {6-[(1R,2S,3S,5S)-3-amino-2-fluoro-8-azabicyclo[3.2.1]octan-8-yl]-3-(4-chloro-2-ethyl-2H-indazol-5-yl)-1H-pyrazolo[3,4-b]pyrazin-5-yl}methanol]",0.012
5,"CN(C)c1ccc2ccc(-c3c[nH]c4nc(N5[C@@H]6CC[C@H]5C[C@@H](N)C6)cnc34)c(Cl)c2n1 [Example 22, 7-{3-[endo-3-amino-8-azabicyclo[3.2.1]octan-8-yl]-5H-pyrrolo[2,3-b]pyrazin-7-yl}-8-chloro-N,N-dimethylquinolin-2-amine, hydrochloride salt]",0.026
6,"N[C@H]1C[C@H]2CC[C@@H](C1)N2c1cnc2c(-c3ccc4[nH]nc(Cl)c4c3Cl)c[nH]c2n1 [Example 54, endo-8-[7-(3,4-dichloro-1H-indazol-5-yl)-5H-pyrrolo[2,3-b]pyrazin-3-yl]-8-azabicyclo[3.2.1]octan-3-amine]",0.01
7,"Cn1nc2ccc(-c3n[nH]c4nc(N5[C@@H]6CC[C@H]5C[C@@H](N)C6)c(CO)nc34)c(Cl)c2c1Cl [Example 88, {6-[endo-3-amino-8-azabicyclo[3.2.1]octan-8-yl]-3-(3,4-dichloro-2-methyl-2H-indazol-5-yl)-1H-pyrazolo[3,4-b]pyrazin-5-yl}methanol]",0.0071
8,"Cn1cc2c(Cl)c(-c3c[nH]c4nc(N5CCC6(CC5)CNC6)cnc34)ccc2n1 [Example 10, 7-[7-(4-chloro-2-methyl-2H-indazol-5-yl)-5H-pyrrolo[2,3-b]pyrazin-3-yl]-2,7-diazaspiro[3.5]nonane]",0.014
9,"Cn1cc2c(Cl)c(-c3c[nH]c4nc(N5CC[C@H](N)[C@@H](O)C5)cnc34)ccc2n1 [Example 31, (3S,4S)-4-amino-1-[7-(4-chloro-2-methyl-2H-indazol-5-yl)-5H-pyrrolo[2,3-b]pyrazin-3-yl]piperidin-3-ol, hydrochloride salt]",0.022
10,"COc1cnc2ccc(-c3n[nH]c4nc(N5[C@H]6CC[C@@H]5[C@@H](F)[C@@H](N)C6)c(C)nc34)c(Cl)c2n1 [Example 95, (1R,2S,3S,5S)-8-[3-(5-chloro-3-methoxyquinoxalin-6-yl)-5-methyl-1H-pyrazolo[3,4-b]pyrazin-6-yl]-2-fluoro-8-azabicyclo[3.2.1]octan-3-amine]",0.003
11,"Cn1ccc(Cn2cc3c(Cl)c(-c4c[nH]c5nc(N6[C@@H]7CC[C@H]6C[C@@H](N)C7)cnc45)ccc3n2)n1 [Example 70, endo-8-(7-{4-chloro-2-[(1-methyl-1H-pyrazol-3-yl)methyl]-2H-indazol-5-yl}-5H-pyrrolo[2,3-b]pyrazin-3-yl)-8-azabicyclo[3.2.1]octan-3-amine, trihydrochloride salt]",0.0088
12,"Cc1nc2ccc(-c3n[nH]c4nc(N5C6CCC5[C@@H](F)[C@@H](N)C6)c(C)nc34)c(Cl)c2s1 (stereo in doubt) [Example 146, (1S,2S,3S,5R)-8-[3-(7-chloro-2-methyl-1,3-benzothiazol-6-yl)-5-methyl-1H-pyrazolo[3,4-b]pyrazin-6-yl]-2-fluoro-8-azabicyclo[3.2.1]octan-3-amine]",0.0074
13,"Cc1nc2c(-c3ccc4nn(C)cc4c3Cl)n[nH]c2nc1N1[C@H]2CC[C@@H]1[C@@H](F)[C@@H](N)C2 [Example 73, (1R,2S,3S,5S)-8-[3-(4-chloro-2-methyl-2H-indazol-5-yl)-5-methyl-1H-pyrazolo[3,4-b]pyrazin-6-yl]-2-fluoro-8-azabicyclo[3.2.1]octan-3-amine, hydrochloride salt]",0.0098
14,"Cn1nc2ccc(-c3c[nH]c4nc(N5[C@@H]6CC[C@H]5C[C@@H](N)C6)cnc34)c(Cl)c2n1 [Example 51, endo-8-[7-(4-chloro-2-methyl-2H-1,2,3-benzotriazol-5-yl)-5H-pyrrolo[2,3-b]pyrazin-3-yl]-8-azabicyclo[3.2.1]octan-3-amine]",0.029
15,"COc1cnc2ccc(-c3n[nH]c4nc(N5[C@@H]6CC[C@H]5[C@@H](F)[C@@H](N)C6)c(CO)nc34)c(Cl)c2n1 [Example 109, {6-[(1S,2S,3S,5R)-3-amino-2-fluoro-8-azabicyclo[3.2.1]octan-8-yl]-3-(5-chloro-3-methoxyquinoxalin-6-yl)-1H-pyrazolo[3,4-b]pyrazin-5-yl}methanol]",0.011
16,"Cn1cc2c(Cl)c(-c3c[nH]c4nc(N5[C@@H]6CC[C@H]5C[C@H](CN)C6)cnc34)ccc2n1 [Example 1, 1-[exo-8-[7-(4-chloro-2-methyl-2-indazol-5-yl)-5H-pyrrolo[2,3-b]pyrazin-3-yl]-8-azabicyclo[3.2.1]octan-3-yl]methanamine]",0.013
17,"Cn1nc2ccc(-c3c[nH]c4nc(N5[C@H]6CC[C@@H]5[C@@H](F)[C@@H](N)C6)c(CO)nc34)c(Cl)c2c1Cl [Example 122, {3-[(1R,2S,3S,5S)-3-amino-2-fluoro-8-azabicyclo[3.2.1]octan-8-yl]-7-(3,4-dichloro-2-methyl-2H-indazol-5-yl)-5H-pyrrolo[2,3-b]pyrazin-2-yl}methanol]",0.0052
18,"CNC(=O)Cn1cc2c(Cl)c(-c3c[nH]c4nc(N5[C@@H]6CC[C@H]5C[C@@H](N)C6)cnc34)ccc2n1 [Example 57, 2-(5-{3-[endo-3-amino-8-azabicyclo[3.2.1]octan-8-yl]-5H-pyrrolo[2,3-b]pyrazin-7-yl}-4-chloro-2H-indazol-2-yl)-N-methylacetamide]",0.023
19,"COc1cnc2ccc(-c3n[nH]c4nc(N5[C@@H]6CC[C@H]5C[C@@](C)(N)C6)c(CO)nc34)c(Cl)c2n1 [Example 134, {6-[endo-3-amino-3-methyl-8-azabicyclo[3.2.1]octan-8-yl]-3-(5-chloro-3-methoxyquinoxalin-6-yl)-1H-pyrazolo[3,4-b]pyrazin-5-yl}methanol]",0.01
20,"Cn1c(=O)sc2ccc(-c3c[nH]c4nc(N5CC[C@H](N)[C@H](F)C5)cnc34)c(Cl)c21 [Example 76, 5-{3-[(3R,4S)-4-amino-3-fluoropiperidin-1-yl]-5H-pyrrolo[2,3-b]pyrazin-7-yl}-4-chloro-3-methyl-2,3-dihydro-1,3-benzothiazol-2-one, hydrochloride]",0.44
21,"Cn1cc2c(Cl)c(-c3c[nH]c4nc(N5CC[C@H](N)[C@H](F)C5)cnc34)ccc2n1 [Example 33, (3R,4S)-1-[7-(4-chloro-2-methyl-2H-indazol-5-yl)-5H-pyrrolo[2,3-b]pyrazin-3-yl]-3-fluoropiperidin-4-amine, hydrochloride salt]",0.033
22,"CCOc1cnc2ccc(-c3n[nH]c4nc(N5[C@H]6CC[C@@H]5[C@@H](F)[C@@H](N)C6)c(CO)nc34)c(Cl)c2n1 [Example 138, {6-[(1R,2S,3S,5S)-3-amino-2-fluoro-8-azabicyclo[3.2.1]octan-8-yl]-3-(5-chloro-3-ethoxyquinoxalin-6-yl)-1H-pyrazolo[3,4-b]pyrazin-5-yl}methanol]",0.013
